How the values were obtained:
[1] = molecular target: APE-1 activity in T98G cell nuclear lysates (Homo sapiens (Human), UniProt P27695); assay: Molecular beacon assay in T98G cell nuclear extracts; format: biochemical
Method: Isolation and Assay of APE-1 Protein from Nuclear Extracts of Glioma Cells. Human glioblastoma cells (T98G) were maintained in growth medium, i.e., Eagle's Minimum Essential Medium (EMEM) with 10% fetal bovine serum (FBS), […] gentamycin, 1×MEM non-essential amino acids and 1 mM sodium pyruvate. Cells were harvested by Trypsin-EDTA treatment, washed with 1×PBS and nuclear proteins isolated using the CelLytic NuCLEAR Extraction kit (Sigma-Aldrich) as per manufacturer's instructions. Isolated nuclear proteins were estimated colorimetrically (BCA protein assay) and stored at −80° C. (long term) or at −20° C. during regular use. To assay APE-1 activity in T98G cells, nuclear extracts were serially diluted in 10 mM HEPES, 50 mM KCl, 1 mM DTT, 20% (v/v) glycerol and the activities measured via the molecular beacon assay (as described above). […] EC2 nM of nuclear extracts was incubated with 2 to 500 nM hairpin DNA substrate and the V0 measured for each value of [S]. Finally, the apparent KM* was deduced using the software algorithm in Prism (as described previously), and the KM* was used to determine the apparent Ki*. Inhibition of EC2 nM APE-1 activity by the inhibitors was assayed via the molecular beacon assay (described above).
Inhibition of APE-1 Activity in Nuclear Lysates. The ability of 1-5 and 8 to block APE-1 endonuclease activity in a complex mixture of proteins from T98G cell nuclear lysates was tested using the molecular beacon assay. The APE-1 activity in the lysates was standardized to give ˜90% turnover of 25 nM substrate in 10 min.

[2] = system: SK-MEL-5 (melanoma) line; assay: NCI 60 cell line growth inhibition; format: cell-based; conditions: Homo sapiens; 4 alone, SK-MEL-5 line
[3] = system: T98G cells; assay: Potentiation of MeLex cytotoxicity, long term (10 d) CyQUANT assay; format: cell-based, human
Method: (§1) Cytotoxic Potentiation of Various DNA Damaging Agents. T98G cells maintained in growth medium were resuspended in fresh growth medium and seeded into 96-well plates at 2000 cells/well (short term cytotoxicity) or 100 cells/well (long term cytotoxicity) as described in the previous section. After 24 h, the cells were treated with serial dilutions of various DNA damaging drugs in absence or presence of APE-1 inhibitors. At the end of the treatment period, cell survival was assayed using CellTiter 96 AQueous or CyQUANT kits for the short- and long-term studies respectively.
(§2) Toxicity. It was assumed that inhibition of APE-1 activity would be lead to toxicity since genetic deletion of the protein is lethal to cells. […] The toxicities were also determined in combination with the DNA minor groove methylating agent, MeLex. MeLex efficiently and selectively generates N3-methyladenine, which is converted into an abasic site by a BER glycosylase and/or hydrolytic depurination. The T98G cell line is relatively resistant to DNA damaging anticancer agents due to expression of multiple drug resistance proteins and O^6-alkylguanine-DNA alkyltransferase. […] A goal of the development of APE-1 inhibitors is to determine if they can be used to enhance the activity of DNA alkylating agents.

[4] = system: NCI panel of 60-cell lines; assay: NCI 60 cell line growth inhibition; format: cell-based; conditions: NCI 60 cell lines; read-out: average growth inhibition (GI50) in all the lines
[5] = system: T98G cells; assay: Short term (72 h) MTS cytotoxicity assay; format: cell-based, human
Method: Cytotoxic Effects of APE-1 Inhibitors on Cultured Human Glioblastoma (T98G) Cells. Human glioblastoma cells (T98G) were maintained in growth medium as described above. […] The cells were allowed to attach and grow for 24 h, and then treated with serial dilutions of the drug for 72 h. After treatment, viable cells were measured by an MTS assay using the CellTiter 96 AQueous kit (Promega) as per manufacturer's instructions. […] The cells were allowed to attach and grow for 24 h and treated with serial dilutions of the drug for 240 h. After treatment, viable cells were measured using the CyQUANT cell proliferation assay kit (Invitrogen) as per manufacturer's instructions.
as §2

[6] = system: aldehyde reactive sites in genomic DNA from T98G cells; format: cell-based, human
Method: Quantification of Abasic Sites. T98G cells maintained in growth medium, were harvested by Trypsin-EDTA treatment, resuspended in fresh growth medium at a density of 2.5×10^5 cells mL^−1, and 2 mL (5×10^5 cells) of this suspension was seeded into the wells of a sterile 6-well tissue culture plate. Cells were allowed to grow for 24 h, treated with the various compounds for different time points and/or at different concentrations. At the end of each treatment, adherent cells were harvested by trypsin-EDTA treatment and pooled with live and dead cells in culture supernatant. Pooled cells in suspension were pelleted by centrifugation, washed with 1×PBS and genomic DNA was isolated using the DNAzol reagent (Invitrogen). DNA in solution was quantified by UV absorbance (λ260 nm) using a Synergy H1 multiwell plate reader (BioTek, Winooski, Vt.). Abasic sites in purified DNA were then reacted with the biotin-conjugated aldehyde reactive probe (ARP), immobilized onto 96-well ELISA plates, and detected using horseradish peroxidase (HRP)-conjugated streptavidin using a colorimetric substrate as per manufacturer's instructions (Dojindo Molecular Technologies, Rockville, Md.).
The biotin tagged ARS are quantified using an avidin-biotin assay, followed by colorimetric detection with horseradish peroxidase conjugated to avidin.

[7] = molecular target: APE-1 (Homo sapiens (Human), UniProt P27695); assay: Gel-based excision assay for APE-1 inhibitors; format: biochemical; conditions: APE-1 cleaved fragment vs. full length DNA substrate
APE-1, sequence (P27695 whole entry, the tested form may be a part): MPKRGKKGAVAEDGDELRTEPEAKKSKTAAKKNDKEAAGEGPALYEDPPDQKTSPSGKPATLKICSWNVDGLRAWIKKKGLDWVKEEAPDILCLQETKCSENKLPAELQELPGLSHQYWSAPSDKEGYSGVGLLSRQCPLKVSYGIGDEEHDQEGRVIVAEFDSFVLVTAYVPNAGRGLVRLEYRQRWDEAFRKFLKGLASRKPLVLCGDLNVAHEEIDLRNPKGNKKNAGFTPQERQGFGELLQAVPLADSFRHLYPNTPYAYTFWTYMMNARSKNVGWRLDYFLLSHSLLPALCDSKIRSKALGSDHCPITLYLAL
Method: Screening for APE-1 Inhibitors. […] In this assay, the DNA hairpin substrate has a 6-FAM fluorophore on the 5′-terminus, a DABACYL fluorescence quencher on the 3′-terminus and a THF abasic site located 6 base pairs from the 5′-terminus in the stem region (FIG. 6). APE-1 activity is monitored as an increase in fluorescence due to the release of the 5′-(6-FAM)-GCACT fragment as a function of time. […] In this assay, substrate turnover was calculated from relative intensities of cleaved vs. intact oligomers and correlated with inhibitor concentration.

[8] = system: T98G cells; assay: Potentiation of MeLex cytotoxicity, short term (72 h) MTS assay; format: cell-based, human
Method: as §1, §2

[9] = system: MOLT-4; assay: NCI 60 cell line growth inhibition; format: cell-based; conditions: Homo sapiens; MOLT-4 line

APE-1 activity in T98G cell nuclear lysates, sequence (P27695 whole entry, stated change not applied): as the sequence (P27695 whole entry, the tested form may be a part) above

## CCn1c2ccccc2c2cc(/C=N/Nc3cc(C)nc4cc5c(cc34)OCO5)ccc21 [Compound 4]
[1]
  Ki: 0.21 µM
[2]
  GI50: 4 µM
[3]
  LD50 of MeLex in the presence of LD10 concentration of inhibitor: 1.6 µM
  maximum potentiation of MeLex: approximately 5 fold
[4]
  GI50: 4.4 ± 2.6 µM
[5]; 72 h MTS assay
  LD10 concentration: 0.25 µM
[5]; MTS assay, T98G
  LD50: 960 nM
[6]; 0.25 μM compound, maintained from 6 h until 18 h
  level of ARS: approximately 17 ARS/10^5 nucleotides
[6]; 80 μM MeLex + 0.25 μM inhibitor, through at least 12 h
  level of ARS in combination with MeLex: 63 sites/10^5 nucleotides
[7]
  IC50: 4.1 µM
[8]; 72 h MTS assay
  LD50 of MeLex in the presence of LD10 concentration of inhibitor: 49 µM
[8]; short term assay
  maximum potentiation of MeLex: approximately 5 fold
[9]
  GI50: 0.133 µM

Reference: patent US9624235B2, “Compounds and methods for inhibition of AP endonuclease-1/redox factor-1 (HAPE1) activity” (University of Pittsburgh—Of the Commonwealth System of …, priority 2012, dated 2017)
